The nature of data set [1]: Apparent permeability across apical to basolateral side in RRCK cells at 1 uM after 2 hrs by LC/MS-MS analysis. The format is ADME, cell-based, Canis lupus familiaris, MDCKII-LE. To be noted: dog, MDCK.
A short description of data set [2]: Oral bioavailability cynomolgus monkey […] at 30 mg/kg. The format is ADME, organism-based, Macaca fascicularis. To be noted: in vivo.
Data set [3] is described as follows: Volume of distribution at steady state in cynomolgus monkey at 1 mg/kg, iv via single bolus administration. The format is ADME, organism-based, Macaca fascicularis. The following applies: in vivo, read-out: Vdss.
Data set [4] is described as follows: Volume of distribution at steady state in Sprague-Dawley rat at 1 mg/kg, iv via single bolus administration. To be noted: in vivo, read-out: Vdss. The class given is ADME, organism-based.
Data set [5] in a line: Ratio of free AUC (0 to 4 hrs) in Sprague-Dawley rat brain to plasma at 0.32 to 1 mg/kg, sc. The class given is ADME, organism-based.
Data set [6] in a line: Oral bioavailability in Sprague-Dawley rat at 25 mg/kg. The format is ADME, organism-based. The following applies: in vivo.
The test system of data set [7] is Plasma. Nature of the data set: Drug metabolism in cynomolgus monkey plasma assessed as N-oxygenated metabolite formation at 150 mg/kg, administered via oral gavage measured on day 12 by UV-LC-MS/MS analysis. The class given is ADME, organism-based, Macaca fascicularis. The following applies: in vivo.
Data set [8] is described as follows: Bioavailability in 6 MPTP-treated dyskinetic PD-LID rhesus monkey model at 2 mg/kg administered BID. The class given is ADME, organism-based, Macaca mulatta. To be noted: in vivo.
Data set [9] can be described thus: Ratio of unbound drug level in cynomolgus monkey brain to plasma at 600 mg/kg, po measured 7.65 hrs post dose on day 1. The format is ADME, organism-based, Macaca fascicularis. To be noted: read-out: K(p,uu,brain).
Data set [10] in a line: AUC (0 to 24 hrs) at steady state in cynomolgus monkey at 600 mg/kg/day, administered via oral gavage for 14 consecutive days measured on day 13. The format is ADME, organism-based, Macaca fascicularis. Details: dose 600 mg/kg/day, time < 24 hr, route oral. The following applies: in vivo.
Data set [11] can be described thus: Volume of distribution at steady state in 6 MPTP-treated dyskinetic PD-LID rhesus monkey at 2 mg/kg administered BID. The format is ADME, organism-based, Macaca mulatta. The following applies: in vivo, read-out: Vdss.
Data set [12] in a line: AUC (0 to 24 hrs) at steady state in cynomolgus monkey at 150 mg/kg/day, administered via oral gavage for 14 consecutive days measured on day 13. To be noted: in vivo. The class given is ADME, organism-based, Macaca fascicularis. The arrangement: time < 24 hr, dose 150 mg/kg/day, route oral.
Data set [13] concerns Plasma. The experiment in a line: Drug metabolism in Crl:CD(SD) rat plasma assessed as metabolite formation at 150 mg/kg, administered via oral gavage measured on day 1 by UV-LC-MS/MS analysis. The format is ADME, organism-based. To be noted: in vivo.
Data set [14] relates to Plasma. The experiment in a line: Drug metabolism in cynomolgus monkey plasma assessed as metabolite formation at 150 mg/kg, administered via oral gavage measured on day 1 by UV-LC-MS/MS analysis. The format is ADME, organism-based, Macaca fascicularis. The following applies: in vivo.
Data set [15] can be described thus: AUC (0 to 24 hrs) at steady state in Crl:CD(SD) rat at 500 mg/kg/day, administered via oral gavage for 14 consecutive days measured on day 13. The class given is ADME, organism-based. The arrangement: dose 500 mg/kg/day, time < 24 hr, route oral. To be noted: in vivo.
Data set [16] can be described thus: AUC (0 to 24 hrs) at steady state in Crl:CD(SD) rat at 150 mg/kg/day, administered via oral gavage for 14 consecutive days measured on day 13. The format is ADME, organism-based. Details: time < 24 hr, dose 150 mg/kg/day, route oral. The following applies: in vivo.
Data set [17] relates to Plasma. The experiment in a line: Drug metabolism in cynomolgus monkey plasma assessed as monohydroxylated metabolite formation at 150 mg/kg, administered via oral gavage measured on day 12 by UV-LC-MS/MS analysis. To be noted: in vivo. The class given is ADME, organism-based, Macaca fascicularis.
The subject of data set [18] is Plasma. The experiment in a line: Plasma concentration in human. The format is ADME, cell-free.
The test system of data set [19] is Plasma. Nature of the data set: Drug metabolism in cynomolgus monkey plasma assessed as O-dealkylated metabolite formation at 150 mg/kg, administered via oral gavage measured on day 12 by UV-LC-MS/MS analysis. The class given is ADME, organism-based, Macaca fascicularis. The following applies: in vivo.
Data set [20] in a line: AUC (0 to 24 hrs) at steady state in cynomolgus monkey at 50 mg/kg/day, administered via oral gavage for 14 consecutive days measured on day 13. Details: time < 24 hr, dose 50 mg/kg/day, route oral. The following applies: in vivo. The format is ADME, organism-based, Macaca fascicularis.
The nature of data set [21]: AUC (0 to 24 hrs) at steady state in Crl:CD(SD) rat at 50 mg/kg/day, administered via oral gavage for 14 consecutive days measured on day 13. The class given is ADME, organism-based. The arrangement: dose 50 mg/kg/day, time < 24 hr, route oral. The following applies: in vivo.
Data set [22] concerns Plasma. The experiment in a line: Drug metabolism in cynomolgus monkey plasma assessed as glucuronidated metabolite formation at 150 mg/kg, administered via oral gavage measured on day 12 by UV-LC-MS/MS analysis. The format is ADME, organism-based, Macaca fascicularis. To be noted: in vivo.

By Papp A→B is commonly meant how fast a substance crosses the layer from the apical side. In general, bioavailability refers to dose-corrected exposure relative to a reference, in per cent. The AUC is the area under the concentration-time curve, a measure of exposure.

Regarding `O=c1cc(OCc2cccc(Cl)c2)nc2n1[C@@H](Cc1ccccc1)COC2`, the Papp A→B at 2 h, 1 µM in data set [1] turned out to be 4 ×10⁻⁶ cm/s.
The same measure, in the same setting: next, `Cc1csc(COc2cc(=O)n3c(n2)COC[C@H]3Cc2ccccc2)n1`: 26 ×10⁻⁶ cm/s; `O=c1cc(OCc2cccc(Cl)c2)nc2ccccn12`: 16 ×10⁻⁶ cm/s; `Cc1cccc(COc2cc(=O)n3cc(Oc4cccnc4)ccc3n2)n1`: 24 ×10⁻⁶ cm/s.
Same read-out and setting: next, `O=c1cc(OCc2cccc(Cl)c2)nc2ccc(Oc3cccnc3)cn12`: 7 ×10⁻⁶ cm/s.
Turning to `CC(C)C[C@@H]1COCc2nc(OCc3cccc(C#N)c3)cc(=O)n21`, the values for the bioavailability in data set [2] and in data set [6] were 43% and 62%, respectively. Besides, the Vd in data set [3] came out at 2.23 L/kg; in data set [4] it was 2.14 L/kg. Also, the Kp uu in [5] came out at 2.19. Moreover, in [1], the Papp A→B at 2 h, 1 µM was found to be 28 ×10⁻⁶ cm/s.
Regarding `CC(C)(C)C[C@@H]1COCc2nc(OCc3ccccn3)cc(=O)n21`, the Drug metabolism result in the data set with Plasma [7], in the data set with Plasma [13], in the data set with Plasma [14], with Plasma [17], in the data set with Plasma [19] and in the data set on Plasma [22] was “Metabolite_Detected” each time. Further, the values for the bioavailability in data set [8], in [2] and in data set [6] were 91%, 11% and 20%, respectively. Further, in data set [9], the Kp uu at 7.65 h was 0.89. For the same compound, the AUC at 24 h was found to be 41500 ng·h/mL in data set [10]; 45400 ng·h/mL in [12]; 313 µg·h/mL in data set [15]; 117 µg·h/mL in data set [16]; 3680 ng·h/mL in data set [20]; 23200 ng·h/mL in data set [21]. Further, the Vd in data set [3] came to 1.24 L/kg; in data set [11], 1 L/kg; in [4] it was 1.29 L/kg. Further, in data set [5], the Kp uu amounted to 1.22. Moreover, in the data set on Plasma [18], the Cp is 31 ng/mL. In addition, the Papp A→B at 2 h, 1 µM in data set [1] worked out at 29 ×10⁻⁶ cm/s.
For `O=c1cc(OCCC2CC2)nc2n1[C@H](Cc1ccccc1)COC2`, the Papp A→B at 2 h, 1 µM in data set [1] is 22 ×10⁻⁶ cm/s.
The same measure, in the same setting: next, `O=c1cc(OCc2cccc(Cl)c2)nc2n1CCCC2`: 26 ×10⁻⁶ cm/s; `O=c1cc(OCc2ccccn2)nc2n1[C@H](Cc1ccccc1)COC2`: 28 ×10⁻⁶ cm/s.
Same read-out and setting: the result for `O=c1cc(OCc2cccc(Cl)c2)nc2n1[C@H](Cc1ccccc1)COC2` reads 4 ×10⁻⁶ cm/s.
`Cc1cccc(COc2cc(=O)n3c(n2)COC[C@H]3Cc2ccccc2)n1`: in data set [1], the Papp A→B at 2 h, 1 µM was determined as 22 ×10⁻⁶ cm/s.
Same read-out and setting: next, `N#Cc1cccc(COc2cc(=O)n3c(n2)COC[C@H]3Cc2ccccc2)c1`: 26 ×10⁻⁶ cm/s.
The same measure, in the same setting: next, `O=c1cc(OCc2cccc(Cl)c2)nc2n1CCOC2`: 31 ×10⁻⁶ cm/s.
Still for that read-out and setting: the result for `CC(C)C[C@@H]1COCc2nc(OCc3ccccn3)cc(=O)n21` reads 39 ×10⁻⁶ cm/s; that for `CC(C)(C)C[C@@H]1COCc2nc(OCc3cccc(C#N)c3)cc(=O)n21`, 25 ×10⁻⁶ cm/s.
On to `O=c1cc(SCc2ccccn2)nc2ccccn12`, for which the Papp A→B at 2 h, 1 µM in data set [1] worked out at 26 ×10⁻⁶ cm/s.

The record behind these values is ChEMBL document CHEMBL4017502, “Discovery and Characterization of (R)-6-Neopentyl-2-(pyridin-2-ylmethoxy)-6,7-dihydropyrimido[2,1-c][1,4]oxazin-4(9H)-one (PF-06462894), an Alkyne-Lacking Metabotropic Glutamate Receptor 5 Negative Allosteric Modulator Profiled in both Rat and Nonhuman Primates” (J Med Chem, 2017).
